pIC50: −log10 of the molar value.
Columns and labels:
Assay type in all cases: biochemical
Pim-1 = biological target: T1, Pim-1 (Homo sapiens, UniProt P11309); assay: Pim-1 kinase assay (Pim enzyme assays, Example A); details: 1 mM ATP; read-out: Pim1 IC50
T1 construct: purchased Invitrogen PV3503
Description: (§1) Pim-1 and Pim-3 kinase assays-20 μL reactions were run in white 384 well polystyrene plates dotted with 0.8 μL compound/DMSO in the assay buffer (50 mM Tris, pH 7.5, 0.01% Tween-20, 5 mM mgCl2, 0.01% BSA, 5 mM DTT), containing 0.05 μM Biotin-labeled BAD peptide substrate (AnaSpec 62269), 1 mM ATP, and […] (Pim-1, Invitrogen PV3503) or […] (Pim-3, Millipore 14-738) enzyme for 1 h at 25° C. Reactions were stopped by addition of 10 μL STOP Buffer (150 mM Tris, pH=7.5, 150 mM NaCl, 75 mM EDTA, 0.01% Tween-20, 0.3% BSA,) supplemented with Phospho-Bad (Ser 12) Antibody (Cell Signaling 9291) diluted 666-fold, and Streptavidin donor beads (PerkinElmer 6760002) along with Protein-A acceptor beads (PerkinElmer 6760137) at 15 μg/mL each. Supplementation of the STOP buffer with beads and stopping the reactions were done under reduced light. Prior to the stopping reactions STOP buffer with beads was preincubated for 1 h in the dark at room temperature. After stopping the reactions, plates were incubated for 1 h in the dark at room temperature before reading on a PHERAstar FS plate reader (BMG Labtech) under reduced light.

Pim-3 = biological target: T2, Pim-3 (Homo sapiens, UniProt Q86V86); assay: Pim-3 kinase assay (Pim enzyme assays, Example A); details: 1 mM ATP; read-out: Pim3 IC50
T2 construct: purchased Millipore 14-738
Description: as §1

Pim2 = biological target: T3, Pim2 (Homo sapiens, UniProt Q9P1W9); assay: Pim-2 kinase assay (Pim enzyme assays, Example A); details: 1 mM ATP; read-out: Pim2 IC50
T3 construct: purchased Invitrogen PV3649
T3 sequence (Q9P1W9 whole entry): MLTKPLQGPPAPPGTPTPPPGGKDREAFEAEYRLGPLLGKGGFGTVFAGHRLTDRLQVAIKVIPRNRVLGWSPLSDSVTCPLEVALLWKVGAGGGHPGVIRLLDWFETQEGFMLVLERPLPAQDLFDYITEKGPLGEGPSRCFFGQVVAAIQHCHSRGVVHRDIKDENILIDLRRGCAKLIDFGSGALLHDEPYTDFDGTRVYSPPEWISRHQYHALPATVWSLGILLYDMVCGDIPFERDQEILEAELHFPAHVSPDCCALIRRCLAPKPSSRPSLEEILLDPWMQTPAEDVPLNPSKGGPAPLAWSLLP
Description: Pim-2 kinase assay—20 μL reactions were run in white 384 well polystyrene plates dotted with 0.8 μL compound/DMSO in the assay buffer (50 mM Tris, pH 7.5, 0.01% Tween-20, 5 mM mgCl2, 0.01% BSA, 5 mM DTT), containing 0.05 μM Fluorescein-labeled CREBtide peptide substrate (Invitrogen PV3508), 1 mM ATP, and 1 nM enzyme (Invitrogen PV3649) for 2 h at 25° C. Reactions were stopped by addition of 10 μL TR-FRET Dilution Buffer (Invitrogen PV3574) with 30 mM EDTA and 1.5 nM LanthaScreen Tb-CREB pSer133 antibody (Invitrogen PV3566). After 30 min. incubation at room temperature, plates were read on a PHERAstar FS plate reader (BMG Labtech).

T1 sequence (P11309 whole entry): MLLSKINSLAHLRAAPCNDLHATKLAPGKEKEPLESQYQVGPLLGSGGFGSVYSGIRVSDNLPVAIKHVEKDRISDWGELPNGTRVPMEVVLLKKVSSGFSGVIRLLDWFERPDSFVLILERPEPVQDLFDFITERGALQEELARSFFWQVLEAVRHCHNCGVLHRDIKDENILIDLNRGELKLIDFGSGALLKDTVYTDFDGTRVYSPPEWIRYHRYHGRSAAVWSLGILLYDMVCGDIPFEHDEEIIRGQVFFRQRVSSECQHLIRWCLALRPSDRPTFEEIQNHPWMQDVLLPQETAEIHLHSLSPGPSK

SMILES	pIC50 (Pim-1)	pIC50 (Pim-3)	pIC50 (Pim2)
CCc1ccc2cc(N)c(C(=O)Nc3cnc4c(c3N3CCC[C@H](N)C3)CCC4O)nc2c1 (single isomer, unassigned) [22 isomer 2]	≥ 7.00	≥ 7.00	< 5.70
Nc1cc2ccc(-c3c(F)cccc3F)cc2nc1C(=O)Nc1cnccc1N1CCC[C@H](N)C1 [Example 3, 3-Amino-N-{4-[(3S)-3-aminopiperidin-1-yl]pyridin-3-yl}-7-(2,6-difluorophenyl)quinoline-2-carboxamide]	≥ 7.00	≥ 7.00	6.00 to 7.00
Cn1nccc1-c1ccc2cc(N)c(C(=O)Nc3cnccc3N3CCC[C@H](N)C3)nc2c1 [Example 4, 3-Amino-N-{4-[(3S)-3-aminopiperidin-1-yl]pyridin-3-yl}-7-(1-methyl-1H-pyrazol-5-yl)quinoline-2-carboxamide]	≥ 7.00	≥ 7.00	5.00 to 6.00
N#Cc1ccccc1-c1ccc2cc(N)c(C(=O)Nc3cnccc3N3CCC[C@H](N)C3)nc2c1 [Example 5, 3-Amino-N-{4-[(3S)-3-aminopiperidin-1-yl]pyridin-3-yl}-7-(2-cyanophenyl)quinoline-2-carboxamide]	≥ 7.00	≥ 7.00	≥ 7.00
N#Cc1cccc(F)c1-c1ccc2cc(N)c(C(=O)Nc3cnccc3N3CCC[C@H](N)C3)nc2c1 [Example 7, 3-Amino-N-{4-[(3S)-3-aminopiperidin-1-yl]pyridin-3-yl}-7-(2-cyano-6-fluorophenyl)quinoline-2-carboxamide]	≥ 7.00	≥ 7.00	≥ 7.00
NC(=O)c1cccc(F)c1-c1ccc2cc(N)c(C(=O)Nc3cnccc3N3CCC[C@H](N)C3)nc2c1 [Example 8, 3-Amino-7-[2-(aminocarbonyl)-6-fluorophenyl]-N-{4-[(3S)-3-aminopiperidin-1-yl]pyridin-3-yl}quinoline-2-carboxamide]	< 7.40	≥ 7.00	< 5.70
Nc1cc2ccccc2nc1C(=O)Nc1cnccc1N1CCC[C@H](N)C1 [Example 11, 3-Amino-N-{4-[(3S)-3-aminopiperidin-1-yl]pyridin-3-yl}quinoline-2-carboxamide]	≥ 7.00	≥ 7.00	6.00 to 7.00
CCc1cc2nc(C(=O)Nc3cnccc3N3CCC[C@H](N)C3)c(N)cc2cc1F [Example 14, 3-Amino-N-{4-[(3S)-3-aminopiperidin-1-yl]pyridin-3-yl}-7-ethyl-6-fluoroquinoline-2-carboxamide]	≥ 7.00	≥ 7.00	6.00 to 7.00
CC(C)(O)c1ccc2cc(N)c(C(=O)Nc3cnccc3N3CCC[C@H](N)C3)nc2c1 [Example 16, 3-Amino-N-{4-[(3S)-3-aminopiperidin-1-yl]pyridin-3-yl}-7-(1-hydroxy-1-methylethyl)quinoline-2-carboxamide]	≥ 7.00	≥ 7.00	6.00 to 7.00
Nc1cc2ccc(C(O)c3ccccc3)cc2nc1C(=O)Nc1cnccc1N1CCC[C@H](N)C1 (stereo partly drawn) [Example 17, 3-Amino-N-{4-[(3S)-3-aminopiperidin-1-yl]pyridin-3-yl}-7-[hydroxy(phenyl)methyl]quinoline-2-carboxamide]	≥ 7.00	≥ 7.00	< 5.70
CN(C)Cc1ccc2cc(N)c(C(=O)Nc3cnccc3N3CCC[C@H](N)C3)nc2c1 [Example 20, 3-Amino-N-{4-[(3S)-3-aminopiperidin-1-yl]pyridin-3-yl}-7-[(dimethylamino)methyl]quinoline-2-carboxamide]	≥ 7.00	≥ 7.00	< 5.70
Nc1cc2ccc(CN3CCOCC3)cc2nc1C(=O)Nc1cnccc1N1CCC[C@H](N)C1 [Example 21, 3-Amino-N-{4-[(3S)-3-aminopiperidin-1-yl]pyridin-3-yl}-7-(morpholin-4-ylmethyl)quinoline-2-carboxamide]	≥ 7.00	≥ 7.00	6.00 to 7.00
CCc1ccc2cc(N)c(C(=O)Nc3cnccc3C3CCCC(N)C3)nc2c1 (stereo not drawn) [Example 23, 3-Amino-N-[4-(3-aminocyclohexyl)pyridin-3-yl]-7-ethylquinoline-2-carboxamide]	≥ 7.00	≥ 7.00	6.00 to 7.00
CCc1ccc2cc(N)c(C(=O)Nc3cnc4c(c3N3CCC[C@H](N)C3)CCO4)nc2c1 [Example 24, (S)-3-Amino-N-(4-(3-aminopiperidin-1-yl)-2,3-dihydrofuro[2,3-b]pyridin-5-yl)-7-ethylquinoline-2-carboxamide]	≥ 7.00	≥ 7.00	6.00 to 7.00
CCOc1ccc2cc(N)c(C(=O)Nc3cnccc3N3CCC[C@H](N)C3)nc2n1 [Example 25, 3-Amino-N-{4-[(3S)-3-aminopiperidin-1-yl]pyridin-3-yl}-7-ethoxy-1,8-naphthyridine-2-carboxamide]	≥ 7.00	≥ 7.00	–
CCOc1ccc2cc(N)c(C(=O)Nc3cnccc3N3C[C@@H](N)[C@H](O)[C@@H](C)C3)nc2n1 [Example 26, 3-Amino-N-{4-[(3R,4R,5S)-3-amino-4-hydroxy-5-methylpiperidin-1-yl]pyridin-3-yl}-7-ethoxy-1,8-naphthyridine-2-carboxamide]	≥ 7.00	≥ 7.00	–
CCc1cc2nc(C(=O)Nc3cnccc3N3CCC[C@H](N)C3)c(N)cc2cn1 [Example 27, 3-Amino-N-{4-[(3S)-3-aminopiperidin-1-yl]pyridin-3-yl}-7-ethyl-1,6-naphthyridine-2-carboxamide]	≥ 7.00	≥ 7.00	–

Other lines, results leading:

pIC50 (Pim-1)	pIC50 (Pim-3)	pIC50 (Pim2)	SMILES
≥ 7.00	≥ 7.00	6.00 to 7.00	Nc1cc2ccc(C3CCNCC3)cc2nc1C(=O)Nc1cnccc1N1CCC[C@H](N)C1 [Example 1, 3-Amino-N-{4-[(3S)-3-aminopiperidin-1-yl]pyridin-3-yl}-7-piperidin-4-ylquinoline-2-carboxamide]
≥ 7.00	≥ 7.00	6.00 to 7.00	Nc1cc2ccc(C3CCOCC3)cc2nc1C(=O)Nc1cnccc1N1CCC[C@H](N)C1 [Example 2, 3-Amino-N-{4-[(3S)-3-aminopiperidin-1-yl]pyridin-3-yl}-7-(tetrahydro-2H-pyran-4-yl)quinoline-2-carboxamide]
≥ 7.00	≥ 7.00	≥ 7.00	CC(C)c1ccc2cc(N)c(C(=O)Nc3cnccc3N3CCC[C@H](N)C3)nc2c1 [Example 9, 3-Amino-N-{4-[(3S)-3-aminopiperidin-1-yl]pyridin-3-yl}-7-isopropylquinoline-2-carboxamide]
≥ 7.00	≥ 7.00	≥ 7.00	CCc1ccc2cc(N)c(C(=O)Nc3cnccc3N3CCC[C@H](N)C3)nc2c1 [Example 10, 3-Amino-N-{4-[(3S)-3-aminopiperidin-1-yl]pyridin-3-yl}-7-ethylquinoline-2-carboxamide]
≥ 7.00	≥ 7.00	6.00 to 7.00	Nc1cc2ccc(Br)cc2nc1C(=O)Nc1cnccc1N1CCC[C@H](N)C1 [Example 12, 3-Amino-N-{4-[(3S)-3-aminopiperidin-1-yl]pyridin-3-yl}-7-bromoquinoline-2-carboxamide]
≥ 7.00	≥ 7.00	6.00 to 7.00	N#CCc1ccc2cc(N)c(C(=O)Nc3cnccc3N3CCC[C@H](N)C3)nc2c1 [Example 13, 3-Amino-N-{4-[(3S)-3-aminopiperidin-1-yl]pyridin-3-yl}-7-(cyanomethyl)quinoline-2-carboxamide]
≥ 7.00	≥ 7.00	6.00 to 7.00	CC(O)c1ccc2cc(N)c(C(=O)Nc3cnccc3N3CCC[C@H](N)C3)nc2c1 (stereo partly drawn) [Example 15, 3-Amino-N-{4-[(3S)-3-aminopiperidin-1-yl]pyridin-3-yl}-7-(1-hydroxyethyl)quinoline-2-carboxamide]
≥ 7.00	≥ 7.00	6.00 to 7.00	CC(F)c1ccc2cc(N)c(C(=O)Nc3cnccc3N3CCC[C@H](N)C3)nc2c1 (stereo partly drawn) [Example 18, 3-Amino-N-{4-[(3S)-3-aminopiperidin-1-yl]pyridin-3-yl}-7-(1-fluoroethyl)quinoline-2-carboxamide]
≥ 7.00	≥ 7.00	< 5.70	Nc1cc2ccc(CN3CCCC3)cc2nc1C(=O)Nc1cnccc1N1CCC[C@H](N)C1 [Example 19, 3-Amino-N-{4-[(3S)-3-aminopiperidin-1-yl]pyridin-3-yl}-7-(pyrrolidin-1-ylmethyl)quinoline-2-carboxamide]
